Test results published in ChEMBL document CHEMBL3399964, “Nine new diterpenes from the leaves of plantation-grown Cunninghamia lanceolata” (2015).
Counter-ions that a name gives are not always drawn.

Experiment: Growth inhibition of human PC3 cells by colorimetric MTT assay
Type: functional
Conditions: PC-3
Molecule `C=CC(=C)[C@@H](C[C@H]1C(=C)CC[C@H]2[C@](C)(CO)CCC[C@]12C)OO` has a GI50 of 34.4 µM.
`C=CC(=C)[C@H](C[C@H]1C(=C)CC[C@H]2[C@](C)(CO)CCC[C@]12C)OO` gave a GI50 of 50.9 µM.
Work on `C=CC(=C)[C@@H](C[C@H]1C(=C)CC[C@@H]2[C@]1(C)CCC[C@@]2(C)C(=O)O)OO` yielded a GI50 of 38 µM.
`C=CC(=C)[C@H](C[C@H]1C(=C)CC[C@@H]2[C@]1(C)CCC[C@@]2(C)C(=O)O)OO` gave a GI50 greater than 100 µM.
Molecule `C=C/C(C)=C/[C@@H](OC(C)=O)[C@H]1C(=C)CC[C@@H]2[C@]1(C)CCC[C@@]2(C)C(=O)O` has a GI50 of 57.2 µM.
`C=C/C(C)=C/[C@@H](OC(C)=O)[C@H]1C(=C)CC[C@@H]2[C@]1(C)CCC[C@@]2(C)C(=O)OC` showed a GI50 of 58.3 µM.
`C=C/C(C)=C/C[C@H]1C(=C)CC[C@H]2[C@](C)(CO)CCC[C@]12C` gave a GI50 of 35 µM.
`C=C/C(C)=C/C[C@H]1C(=C)CC[C@@H]2[C@]1(C)CCC[C@@]2(C)C(=O)O` gave a GI50 greater than 100 µM.
`C=CC(=C)CC[C@@H]1[C@@]2(C)CCC[C@](C)(COC(=O)/C=C\c3ccccc3)[C@@H]2CC[C@@]1(C)O` gave a GI50 greater than 100 µM.
`C=CC(=C)CC[C@@H]1[C@@]2(C)CCC[C@](C)(COC(=O)/C=C/c3ccccc3)[C@@H]2CC[C@@]1(C)O` showed a GI50 of 10.6 µM.
Work on `CC(C)c1cc2c3c(c1O)O[C@@H]1CCC(C)(C)[C@H](CC2)[C@@]31C` yielded a GI50 of 27.4 µM.
For `Cc1cc2c(C(C)C)ccc(C)c2cc1O`, the GI50 was 54 µM.
Molecule `COc1cccc2c1C(=O)c1c(O)c3c(c(O)c1C2=O)C[C@@](O)(C(=O)CO)C[C@@H]3O[C@H]1C[C@H](N)[C@H](O)[C@H](C)O1` [DOXORUBICIN HYDROCHLORIDE] has a GI50 of 1.1 µM.
`COc1ccc(-c2cc(=O)c3c(O)cc(O)c(-c4cc(-c5cc(=O)c6c(O)cc(O)cc6o5)ccc4O)c3o2)cc1` [PODOCARPUSFLAVONE A] gave a GI50 greater than 100 µM.
`COc1cc(O)c2c(=O)cc(-c3ccc(O)c(-c4c(O)cc(O)c5c(=O)cc(-c6ccc(O)cc6)oc45)c3)oc2c1` [SEQUOIAFLAVONE] gave a GI50 of 43.3 µM.
